Earlier results, collected in patent publication US8796195B2 (priority 2007, dated 2014).
“And” between values parts separate entries of the source, which are not always exact repeats. Identical values can stand only once.

Experiments:
[1] = based on 48% tetrafluoroboric acid

SMILES	pKa	LD50 (toxic by ingestion) [1]
F[B-](F)(F)F.[H+] [Tetrafluoroboric acid, tetrafluoroboric acid]	approximately −3	100 to 464 mg/kg
F [HF, hydrofluoric acid]	3.4 and ~3.5	
